The text below walks through data of US5629406A, “Inhibitors of HIV protease” (Sankyo Company, Limited, priority 1992, dated 1997).

For one assay, the target named is HIV pol protease (Human immunodeficiency virus type 1 group M subtype B, UniProt P03366). Description: Assay of the inhibition of HIV pol protease (synthetic substrate TE-2, HPLC of TE-3).
Another assay relates to Molt 4/HTLV IIIB. Description: Inhibition of the release of virus from Molt 4 cells chronically infected with HIV. It counts as cell-based, HIV (HTLVIIIB). The protocol:
Inhibition of the Release of Virus from Molt 4 Cells Chronically Infected with HIV (Molt 4/HTLV IIIB)
A Molt 4 cell line chronically infected with HIV, that is with HTLVIIIB, was established (Molt 4/HTLVIIIB). The cells were washed twice with growth medium (RPMI-1640 medium containing 10% v/v heat-inactivated fetal calf serum). The washed cells were then inoculated into growth medium at a density of 2×10^5 cells/ml, in the presence of selected concentrations of test compounds, at 37° C., and cultured under an atmosphere of 5% carbon dioxide.
After 48 hours, the test cultures were spun down at 1000×g for 3 minutes, and the supernatant was collected. Polyethylene glycol 6000 was added to the supernatant to a final concentration of 10% w/v, and the resulting solution was left to stand for 6 hours on ice. Virions precipitated by this procedure were subsequently obtained as a pellet by centrifuging the treated supernatants for 30 minutes at 10000×g. The amount of HIV antigen in the pellets was then determined using a commercial enzyme immunoassay (EIA) system [HIV antigen EIA kit, available from Abbot].
IC50 (the minimum concentration of test compound sufficient to reduce the amount of HIV antigen production by 50%, as determined by the EIA system) was used as a measure of anti-HIV activity.

The structures appear in SMILES notation. Values after ≈ are worked out from the molar mass of the structure shown. Where a name gives a salt, the structure may show the parent alone. Read-outs that look alike come from different tables or passages of the source. Bounds are passed on as bounds.

Experimental for HIV pol protease: The Ki, that is the dissociation constant of the enzyme-inhibitor complex, measured according to the equation [formula]
A reaction mixture containing 1 mM or 1.5 mM of the substrate TE-2, having the structure described in European Patent Publication No. 498,680, 1 μl of the desired concentration of the compound to be tested (dissolved in dimethyl sulfoxide comprising 20% v/v water), 2 μl of the enzyme solution prepared as described in step (c), above, and buffer solution [50 mM tris HCl (pH 6.0), 0.25M sodium chloride, 0.1 mM ethylenediaminetetraacetic acid, 0.1 mM Triton X-100] to form 10 μl in total, was incubated for 30 minutes at 37° C.
The reaction was Stopped by the addition of 250 μl of a 0.1% w/v solution of aqueous trifluoroacetic acid and 10% v/v acetonitrile. The reaction mixture was then subjected to Sep-pak light™ chromatography (Waters Co., Milford, Mass., USA), and the fractions passing through the column were collected.
The substrate TE-2 is decomposed by the HIV protease to form a shortened peptide of four amino acids, (TE-3; having the structure described in European Patent Publication No. 498,680). The amount of TE-3 formed was assayed quantitatively using a high performance liquid chromatography (HPLC) column [ODS-120T (Trade Mark), 4.6 mm in inner diameter ×250 mm, To-So Co.] using a mixture of 9% acetonitrile-0.05% trifluoroacetic acid as the eluting solvent.
The Ki in nM was calculated according to the method of Michaelis-Menten using the equation given above.

A word on the Ki: it is the dissociation constant of the complex between target and ligand, obtained from inhibition or displacement. `CN(C)c1ccc(OCC(=O)N[C@@H](CC(N)=O)C(=O)N[C@@H](Cc2ccccc2)[C@H](O)C(=O)N2CCC[C@H]2C(=O)NC(C)(C)C)cc1` [Example 21, 1-[(2S,3S)-3-{N^2-[4-(N,N-Dimethylamino)phenoxyacetyl]-L-asparaginyl}amino-2-hydroxy-4-phenylbutyryl]-N-t-butyl-L-prolinamide] showed an inhibition constant (Ki) at HIV pol protease of 37 nM.
In the case of `CC(C)(C)NC(=O)[C@@H]1C[C@@H]2CCCC[C@@H]2CN1C[C@@H](O)[C@H](Cc1ccccc1)NC(=O)[C@H](CC(N)=O)NC(=O)c1ccc2ccccc2n1` [Ro31-8959, 3-t-butylaminocarbonyl-2-{(2R, 3S)-3-[(N-2'-quinolinecarbonyl-L-asparaginyl)amino]-2-hydroxy-4-phenylbutyl}-(3S, 4aS, 8aS)-decahydroisoquinoline, reference compound], in the assay on Molt 4/HTLV IIIB (Molt 4/HTLVIIIB cells, 48 hours, HIV antigen in precipitated virions by EIA), the “IC50 (concentration reducing HIV antigen production by 50%)” value was over 20.0 µg/mL. In addition, at HIV pol protease (1 mM or 1.5 mM substrate TE-2, pH 6.0, 30 minutes at 37° C., calculated by Michaelis-Menten), the Ki is 58 nM.
Take `CC(C)(C)NC(=O)[C@@H]1C[C@@H](O)CN1C(=O)[C@@H](O)[C@H](Cc1ccccc1)NC(=O)[C@H](CC(N)=O)NC(=O)OCc1ccccc1` [Example 4, (4R)-1-[(2S,3S)-3-(N^2 -Benzyloxycarbonyl-L-asparaginyl)amino-2-hydroxy-4-phenylbutyryl]-N-t-butyl-4-hydroxy-L-prolinamide]: the Ki on HIV pol protease came out at 56 nM.
As to `CC(C)(C)NC(=O)[C@@H]1C[C@H](Cl)CN1C(=O)[C@@H](O)[C@H](Cc1ccccc1)NC(=O)[C@H](CC(N)=O)NC(=O)c1cnc2ccccc2n1` [Example 14, (4S)-1-{(2S,3S)-3-[N^2-(2-Quinoxalinecarbonyl)-L-asparaginyl]amino-2-hydroxy-4-phenylbutyryl}-N-t-butyl-4-chloro-L-prolinamide], the IC50 with Molt 4/HTLV IIIB (Human immunodeficiency virus 1, IIIB, MOLT-4, 48 h, read-out: IC50 (concentration reducing HIV antigen production by 50%)) stood at 0.39 µg/mL (≈ 0.598 µM). Further, the Ki at HIV pol protease was 4.7 nM.
`CNc1ccc(OCC(=O)N[C@@H](CC(N)=O)C(=O)N[C@@H](Cc2ccccc2)[C@H](O)C(=O)N2CCC[C@H]2C(=O)NC(C)(C)C)cc1` [Example 20, 1-[(2S,3S)-3-{N^2-[4-(Methylamino)phenoxyacetyl]-L-asparaginyl}amino-2-hydroxy-4-phenylbutyryl]-N-t-butyl-L-prolinamide hydrochloride] registered an inhibitory constant (Ki) on HIV pol protease of 49 nM.
On to `CC(C)(C)NC(=O)[C@@H]1CCCN1C(=O)[C@@H](O)[C@H](Cc1ccccc1)NC(=O)[C@H](CC(N)=O)NC(=O)COc1ccc(NC(=O)OCc2ccccc2)cc1` [Example 16, 1-[(2S,3S)-3-{N^2-[4-(Benzyloxycarbonylamino)phenoxyacetyl]-L-asparaginyl}amino-2-hydroxy-4-phenylbutyryl]-N-t-butyl-L-prolinamide], for which the Ki at HIV pol protease was 14 nM.
Same read-out and setting: the value for `CC(C)(C)NC(=O)[C@@H]1C[C@H](Cl)CN1C(=O)[C@@H](O)[C@H](Cc1ccccc1)NC(=O)[C@H](CC(N)=O)NC(=O)OCc1ccccc1` [Example 1, (4S)-1-[(2S,3S)-3-(N^2 -Benzyloxycarbonyl-L-asparaginyl)amino-2-hydroxy-4-phenylbutyryl]-N-t-butyl-4-chloro-L-prolinamide] was 8 nM; that for `CC(C)(C)NC(=O)[C@@H]1CCCN1C(=O)[C@@H](O)[C@H](Cc1ccccc1)NC(=O)[C@H](CC(N)=O)NC(=O)COc1ccc(N)cc1` [Example 17, 1-{(2S,3S)-3-[N^2-(4-Aminophenoxyacetyl)-L-asparaginyl)amino-2-hydroxy-4-phenylbutyryl]-N-t-butyl-L-prolinamide hydrochloride] was 18.5 nM; that for `CC(C)(C)NC(=O)[C@@H]1CCCN1C(=O)[C@@H](O)[C@H](Cc1ccccc1)NC(=O)[C@H](CC(N)=O)NC(=O)COc1ccc(NC(=O)CN)cc1` [Example 18, 1-[(2S,3S)-3-{N^2-[4-(Glycylamino)phenoxyacetyl]-L-asparaginyl}amino-2-hydroxy-4-phenylbutyryl]-N-t-butyl-L-prolinamide hydrochloride] was 30 nM.
